# Reference: patent publication US20120264735A1 (priority 2009, published 2012)
# pIC50: −log10 of the molar value.
# Target: T1, c-Met kinase (recombinant c-Met) (Homo sapiens, UniProt P08581)
# T1 construct: 0.27 nM recombinant c-Met
# Test: In vitro kinase assay I (homogeneous time-resolved fluorescence tyrosine kinase assay)
# Format: biochemical
# Outline: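 Biotinylated peptide (0.5 μM) phosphorylated by 0.2 nM recombinant c-Met with 50 μM MgATP, 60 min at room temperature, pH 7.4, 5% DMSO. EDTA stop; HTRF read with Eu-anti-phosphotyrosine antibody and streptavidin-APC. IC50 from 4-parameter logistic fit.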
# T1 sequence (P08581 25-1390): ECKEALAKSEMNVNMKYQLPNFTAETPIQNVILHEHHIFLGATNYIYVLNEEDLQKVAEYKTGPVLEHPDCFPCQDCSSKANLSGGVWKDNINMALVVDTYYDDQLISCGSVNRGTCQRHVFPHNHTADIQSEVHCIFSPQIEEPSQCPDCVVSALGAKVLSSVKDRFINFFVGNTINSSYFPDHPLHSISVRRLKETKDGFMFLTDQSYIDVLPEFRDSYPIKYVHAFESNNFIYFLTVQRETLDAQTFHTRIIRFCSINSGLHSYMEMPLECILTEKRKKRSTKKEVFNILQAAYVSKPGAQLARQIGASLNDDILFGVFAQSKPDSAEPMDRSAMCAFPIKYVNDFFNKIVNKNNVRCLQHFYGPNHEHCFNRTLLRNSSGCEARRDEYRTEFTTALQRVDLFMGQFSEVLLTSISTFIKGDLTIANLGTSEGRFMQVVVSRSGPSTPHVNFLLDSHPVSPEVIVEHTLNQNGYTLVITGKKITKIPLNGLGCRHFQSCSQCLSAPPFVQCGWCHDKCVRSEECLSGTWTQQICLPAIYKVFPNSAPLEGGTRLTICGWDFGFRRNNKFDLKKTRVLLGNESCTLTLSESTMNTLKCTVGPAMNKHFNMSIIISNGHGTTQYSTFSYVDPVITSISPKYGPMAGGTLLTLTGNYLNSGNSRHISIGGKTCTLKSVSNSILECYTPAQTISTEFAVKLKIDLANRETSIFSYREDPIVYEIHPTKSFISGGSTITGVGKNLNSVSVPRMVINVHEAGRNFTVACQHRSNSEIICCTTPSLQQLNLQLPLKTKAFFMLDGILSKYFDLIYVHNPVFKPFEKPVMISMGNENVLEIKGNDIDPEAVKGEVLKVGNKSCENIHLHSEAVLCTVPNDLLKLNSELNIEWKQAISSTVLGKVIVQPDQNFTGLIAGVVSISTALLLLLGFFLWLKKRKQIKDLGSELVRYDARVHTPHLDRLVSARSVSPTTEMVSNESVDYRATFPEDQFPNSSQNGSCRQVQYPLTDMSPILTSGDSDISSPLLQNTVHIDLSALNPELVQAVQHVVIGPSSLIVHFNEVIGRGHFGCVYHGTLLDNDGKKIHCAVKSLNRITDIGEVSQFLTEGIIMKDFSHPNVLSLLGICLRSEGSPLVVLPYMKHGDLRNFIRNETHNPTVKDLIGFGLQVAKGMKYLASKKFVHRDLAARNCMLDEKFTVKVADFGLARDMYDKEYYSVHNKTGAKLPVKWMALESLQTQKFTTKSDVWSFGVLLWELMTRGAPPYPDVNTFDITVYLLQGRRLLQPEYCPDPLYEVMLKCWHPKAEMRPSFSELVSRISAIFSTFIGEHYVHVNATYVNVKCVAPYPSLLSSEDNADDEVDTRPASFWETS
row,Compound,pIC50
1,"CCOc1cnc2ccc(Cc3nn(-c4cc(F)c(F)c(F)c4)ccc3=O)cc2c1 [Example 65, 3-[(3-ethoxyquinolin-6-yl)methyl]-1-(3,4,5-trifluorophenyl)pyridazin-4(1H)-one]",6.00 to 7.00
2,"COc1cnc(-c2cccc(C(C)c3nn(-c4cnn(C)c4)ccc3=O)c2)nc1 (single isomer, unassigned) [Example 203, 3-{(1S or R)-1-[3-(5-Methoxypyrimidin-2-yl)phenyl]ethyl}-1-(1-methyl-1H-pyrazol-4-yl)pyridazin-4(1H)-one]",6.00 to 7.00
3,"CCn1cc(-n2ccc(=O)c(C(C)c3cccc(-c4ncc(OCc5ccccc5)cn4)c3)n2)cn1 (single isomer, unassigned) [Example 228, 3-((1S or R)-1-{3-[5-(benzyloxy)pyrimidin-2-yl]phenyl}ethyl)-1-(1-ethyl-1H-pyrazol-4-yl)pyridazin-4(1H)-one]",6.00 to 7.00
4,"Cn1cc(-n2ccc(=O)c(Cc3cccc(-c4ncc(OC(F)F)cn4)c3)n2)cn1 [Example 386, 3-{3-[5-(Difluoromethoxy)pyrimidin-2-yl]benzyl}-1-(1-methyl-1H-pyrazol-4-yl)pyridazin-4(1H)-one]",> 7.00
5,"CN1CCN(CCOC(=O)Nc2cccc(Cc3nn(-c4cc(F)c(F)c(F)c4)ccc3=O)c2)CC1 [Example 516, 2-(4-methylpiperazin-1-yl)ethyl (3-{[4-oxo-1-(3,4,5-trifluorophenyl)-1,4-dihydropyridazin-3-yl]methyl}phenyl)carbamate]",> 7.00
6,Cn1cc(-n2ccc(=O)c(Cc3cccc(-c4ncn(CCN5CCCC5=O)n4)c3)n2)cn1 [Example 718],6.00 to 7.00
7,"CCOc1cnc(-c2ccc(F)c(Cc3nn(-c4cnn(C)c4)ccc3=O)c2)nc1 [Example 118, 3-[5-(5-ethoxypyrimidin-2-yl)-2-fluorobenzyl]-1-(1-methyl-1H-pyrazol-4-yl)pyridazin-4(1H)-one]",> 7.00
8,"Cn1cc(-n2ccc(=O)c(Cc3ccc4nn(C)cc4c3)n2)cn1 [Example 49, 3-[(2-methyl-2H-indazol-5-yl)methyl]-1-(1-methyl-1H-pyrazol-4-yl)pyridazin-4(1H)-one]",5.52 to 6.00
9,"CCCCc1cnc(-c2cccc(Cc3nn(-c4cnn(C)c4)ccc3=O)c2)nc1 [Example 392, 3-[3-(5-butylpyrimidin-2-yl)benzyl]-1-(1-methyl-1H-pyrazol-4-yl)pyridazin-4(1H)-one]",> 7.00
10,"CCCNc1cnc(-c2cccc(Cc3nn(-c4cnn(C)c4)ccc3=O)c2)nc1 [Example 451, 1-(1-Methyl-1H-pyrazol-4-yl)-3-{3-[5-(propylamino)pyrimidin-2-yl]benzyl}pyridazin-4(1H)-one]",> 7.00
11,"Cn1cc(-n2ccc(=O)c(Cc3cccc(NC(=O)OC[C@H]4CCCN4)c3)n2)cn1 [Example 615, (2R)-pyrrolidin-2-ylmethyl (3-{[1-(1-methyl-1H-pyrazol-4-yl)-4-oxo-1,4-dihydropyridazin-3-yl]methyl}phenyl)carbamate]",6.00 to 7.00
12,"COCCOC(=O)Nc1cccc(Cc2nn(-c3cc(F)cc(F)c3)ccc2=O)c1 [Example 507, 2-methoxyethyl (3-{[1-(3,5-difluorophenyl)-4-oxo-1,4-dihydropyridazin-3-yl]methyl}phenyl)carbamate]",> 7.00
13,"CCOC(=O)Nc1cccc(Cc2nn(-c3cnn(CCOC)c3)ccc2=O)c1 [Example 106, ethyl [3-({1-[1-(2-methoxyethyl)-1H-pyrazol-4-yl]-4-oxo-1,4-dihydropyridazin-3-yl}methyl)phenyl]carbamate]",6.00 to 7.00
14,"CCOc1cnc(-c2cccc(C(CC)c3nn(-c4cnn(C)c4)ccc3=O)c2)nc1 (single isomer, unassigned) [Example 205, 3-{(1S or R)-1-[3-(5-ethoxypyrimidin-2-yl)phenyl]propyl}-1-(1-methyl-1H-pyrazol-4-yl)pyridazin-4(1H)-one]",6.00 to 7.00
15,"CCn1cc(-n2ccc(=O)c(Cc3cccc(-c4ncc(OCC5CCO5)cn4)c3)n2)cn1 (racemic) [Example 308, rac-1-(1-ethyl-1H-pyrazol-4-yl)-3-{3-[5-(oxetan-2-ylmethoxy)pyrimidin-2-yl]benzyl}pyridazin-4(1H)-one]",> 7.00
16,"CCn1cc(-n2ccc(=O)c(C(C)c3cccc(-c4ncc(OC)cn4)c3)n2)cn1 (single isomer, unassigned) [Example 333, 1-(1-ethyl-1H-pyrazol-4-yl)-3-{(1R or S)-1-[3-(5-methoxypyrimidin-2-yl)phenyl]ethyl}pyridazin-4(1H)-one]",> 7.00
17,"Cn1cc(-n2ccc(=O)c(Cc3cccc(-c4ncc(OCC(O)CF)cn4)c3)n2)cn1 (racemic) [Example 369, rac-3-{3-[5-(3-fluoro-2-hydroxypropoxy)pyrimidin-2-yl]benzyl}-1-(1-methyl-1H-pyrazol-4-yl)pyridazin-4(1H)-one]",> 7.00
18,"N#Cc1cccc(-n2ccc(=O)c(Cc3cccc(NC(=O)OCCN4CCOCC4=O)c3)n2)c1 [Example 584, 2-(3-oxomorpholin-4-yl)ethyl (3-{[1-(3-cyanophenyl)-4-oxo-1,4-dihydropyridazin-3-yl]methyl}phenyl)carbamate]",> 7.00

# The next lines start with the values.
row,pIC50,Compound
1,> 7.00,"CCCn1cnc(-c2cccc(Cc3nn(-c4ccc(F)c(F)c4)ccc3=O)c2)n1 [Example 80, 1-(3,4-difluorophenyl)-3-[3-(1-propyl-1H-1,2,4-triazol-3-yl)benzyl]pyridazin-4(1H)-one]"
2,> 7.00,"CCOc1cnc(-c2cccc(C(F)c3nn(-c4cnn(C)c4)ccc3=O)c2)nc1 (single isomer, unassigned) [Example 656, 3-[(R or S)-[3-(5-ethoxypyrimidin-2-yl)phenyl](fluoro)methyl]-1-(1-methyl-1H-pyrazol-4-yl)pyridazin-4(1H)-one]"
3,> 7.00,"Cn1cc(-n2ccc(=O)c(Cc3ccc4ncc(OCC5CCOC5)cc4c3)n2)cn1 (racemic) [Example 64, rac-1-(1-methyl-1H-pyrazol-4-yl)-3-{[3-(tetrahydrofuran-3-ylmethoxy)quinolin-6-yl]methyl}pyridazin-4(1H)-one]"
4,> 7.00,"Cn1cc(-n2ccc(=O)c(Cc3cccc(-c4ncc(CN5CCSCC5)cn4)c3)n2)cn1 [Example 428, 1-(1-methyl-1H-pyrazol-4-yl)-3-{3-[5-(thiomorpholin-4-ylmethyl)pyrimidin-2-yl]benzyl}pyridazin-4(1H)-one]"
5,> 7.00,"CC(C)COC(=O)Nc1cccc(Cc2nn(-c3cnn(CCC(=O)NC4COC4)c3)ccc2=O)c1 [Example 704, 2-methylpropyl {3-[(1-{1-[3-(oxetan-3-ylamino)-3-oxopropyl]-1H-pyrazol-4-yl}-4-oxo-1,4-dihydropyridazin-3-yl)methyl]phenyl} carbamate]"
6,> 7.00,"Cn1cc(-n2ccc(=O)c(Cc3cccc(NC(=O)OCCC4CCOCC4)c3)n2)cn1 [Example 565, 2-(tetrahydro-2H-pyran-4-yl)ethyl (3-{[1-(1-methyl-1H-pyrazol-4-yl)-4-oxo-1,4-dihydropyridazin-3-yl]methyl}phenyl)carbamate]"
7,> 7.00,"N#Cc1cccc(-n2ccc(=O)c(Cc3cccc(NC(=O)OCCN4CCCC4=O)c3)n2)c1 [Example 582, 2-(2-oxopyrrolidin-1-yl)ethyl (3-{[1-(3-cyanophenyl)-4-oxo-1,4-dihydropyridazin-3-yl]methyl}phenyl)carbamate]"
8,> 7.00,"COCCOC(=O)Nc1cccc(Cc2nn(-c3cccc(C#N)c3)ccc2=O)c1 [Example 502, 2-methoxyethyl (3-{[1-(3-cyanophenyl)-4-oxo-1,4-dihydropyridazin-3-yl]methyl}phenyl)carbamate]"
9,> 7.00,"Cn1cc(-n2ccc(=O)c(Cc3cccc(-c4ncc(OCC(O)C(F)(F)F)cn4)c3)n2)cn1 (racemic) [Example 364, rac-1-(1-methyl-1H-pyrazol-4-yl)-3-{3-[5-(3,3,3-trifluoro-2-hydroxypropoxy)pyrimidin-2-yl]benzyl}pyridazin-4(1H)-one]"
10,> 7.00,"Cn1cc(-n2ccc(=O)c(Cc3cccc(-c4ncc(NC(=O)OC(C)(C)C)cn4)c3)n2)cn1 [Example 159, tert-butyl [2-(3-{[1-(1-methyl-1H-pyrazol-4-yl)-4-oxo-1,4-dihydropyridazin-3-yl]methyl}phenyl)pyrimidin-5-yl]carbamate]"
11,> 7.00,"CN(C)C(=O)CCOC(=O)Nc1cccc(Cc2nn(-c3cc(F)cc(F)c3)ccc2=O)c1 [Example 589, 3-(dimethylamino)-3-oxopropyl (3-{[1-(3,5-difluorophenyl)-4-oxo-1,4-dihydropyridazin-3-yl]methyl}phenyl)carbamate]"
12,> 7.00,"Cn1cc(-n2ccc(=O)c(Cc3cccc(NC(=O)OCCn4cncn4)c3)n2)cn1 [Example 534, 2-(1H-1,2,4-triazol-1-yl)ethyl (3-{[1-(1-methyl-1H-pyrazol-4-yl)-4-oxo-1,4-dihydropyridazin-3-yl]methyl}phenyl)carbamate]"
13,> 7.00,"Cn1cc(-n2ccc(=O)c(Cc3cccc(NC(=O)OCCC4(O)CCOC(C)(C)C4)c3)n2)cn1 (racemic) [Example 612, rac-2-(4-hydroxy-2,2-dimethyl-tetrahydro-2H-pyran-4-yl)ethyl (3-{[1-(1-methyl-1H-pyrazol-4-yl)-4-oxo-1,4-dihydropyridazin-3-yl]methyl}phenyl)carbamate]"
14,> 7.00,CCOc1cnc(-c2cccc(Cc3nn(-c4cnn(C)c4F)cc(F)c3=O)c2)nc1 [compound 752]
15,> 7.00,"Cn1cc(-n2ccc(=O)c(Cc3cccc(-c4ncc(NC(=O)C5CCCO5)cn4)c3)n2)cn1 (racemic) [Example 462, rac-N-[2-(3-{[1-(1-methyl-1H-pyrazol-4-yl)-4-oxo-1,4-dihydro-pyridazin-3-yl}methyl}phenyl)pyrimidin-5-yl]tetra-hydrofuran-2-carboxamide]"
16,> 7.00,"CCc1cnc(-c2cccc(Cc3nn(-c4ccc(F)c(F)c4)ccc3=O)c2)nc1 [Example 407, 1-(3,4-difluorophenyl)-3-[3-(5-ethylpyrimidin-2-yl)benzyl]pyridazin-4(1H)-one]"
